Data reported in patent publication US20160010154A1, “SCREENING ASSAYS FOR THERAPEUTICS FOR PARKINSON'S DISEASE” (THE PARKINSON'S INSTITUTE, priority 2012, published 2016).

How the values were obtained:
[1] = tested on: LRRK2 mutant and ZFN-corrected NPCs; assay: Mitochondrial calcein retention (MTP opening), HCI microscopy; assay type: cell-based, human; conditions: rotenone stress, corrected and LRRK2 mutant lines
Description: Cells grown on high glucose (HG) with or without 20 uM rotenone (R) or with radical generator TBHP (200 uM). Cells were analyzed by flow cytometry and mean CM-DCFDA fluorescence (Ex./Em. 495/529 nm) of live cells was then normalized to number of viable cells. […] Images: Depicted are representative image overlays showing mitochondrial fluorescence patterns indicative of mitochondrial membrane potential for the corrected (1.7) and uncorrected (1.13) NPCs. […] Mitochondria were loaded with calcein AM and cytosolic fluorescence was quenched by CoCl2. Graph: Relative amount of mitochondrial localized calcein fluorescence identified by Mitotracker™ Red CMXROS co-localization was normalized to cell number. Images: Representative image overlays showing mitochondrial fluorescence patterns indicative of mitochondrial calcein retention and mitochondrial integrity in corrected (1.7) and uncorrected (1.13) NPCs. FIG. 4D is a graph showing HCI analysis of caspase 3/7 activation in LRRK2 NPCs measured by fluorescence activated by caspase 3/7 mediated cleavage of a DEVD peptide-DNA dye conjugate. NPCs were incubated with the caspase substrate and the % of caspase substrate fluorescence positive cells (identified by nuclear Hoechst 33342 counterstain) was determined from 4 sites acquired at 10× magnification. […]

[2] = tested on: LRRK2 G2019S mutant and ZFN-corrected NPCs; assay: ROS production by CM-H2DCFDA fluorescence, flow cytometry; assay type: cell-based, human; conditions: 200 μM for 60 min, normal growth conditions, both cell lines
Description: Cells were assayed for free radical production using CM-H2DCFDA that can be oxidized and rendered fluorescent by hydroxyl radicals produced by mitochondria. See, e.g., Petronilli et al. (1999) Biophysical journal 76:725-734; Nicholls (2009) Biochimica et biophysica acta 1787:1416-1424. Cytoplasmic fluorescence of this indicator dye in viable cells was assayed by flow cytometry to obtain a signature for cellular oxidative stress.
In particular, for stress experiments, NPCs were seeded 24 hours before being cultured under the following selective media conditions for an additional 18 hours: Standard NPC growth medium as above (HG=high glucose), HG plus 20 μM rotenone (HG+R) (SIGMA # R-8875) or an NPC growth medium formulation based on HG medium without glucose (NG, Life Techn. Neurobasal-A, Formula 05-0128DJ).
For flow cytometry, NPCs were seeded at 80% confluence on either 24-well (1-2×10^5 cells) or 48 well plates (5×10^4 cells) (NUNC #s 142475, 150687) on Geltrex (100 ug/ml protein) coated plates 24 hours before the experiment and then challenged as described above. In general two replicate wells were analyzed in each experimental run. After the respective treatment, cells were sampled by flow cytometry with an Accuri™ C6 cytometer with C-Sampler™ (BD Accuri) and subsequently analyzed using the Cflow® analysis software. […]

Structure (SMILES) | mitochondrial calcein loading [1] | ROS response to radical generator [2]
C=C(C)[C@H]1Cc2c(ccc3c2O[C@@H]2COc4cc(OC)c(OC)cc4[C@@H]2C3=O)O1 [rotenone] | increased mitochondrial calcein loading | –
CC(C)(C)OO [TBHP] | – | increase of ROS
